From the supplement of paper PMC10307832

Assays:
Assay in all cases: relative viability (nuclei count vs DMSO), 5 days (fraction); higher = more cells survive
Crenolanib = compound: CC1(COc2ccc3c(c2)ncn3-c2ccc3cccc(N4CCC(N)CC4)c3n2)COC1 [Crenolanib]
In short: (§1)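 Lung cancer cell lines were seeded into 1536-well plates, kept overnight at 37 °C and pinned with five library-drug doses (not always all listed) spaced by √10. After 5 days, nuclei were Hoechst-stained, imaged at 4× and counted with MetaXpress. Viability is treated-well nuclei over vehicle-well nuclei, taken as a median across plates. Plates needed control CV below 25% and at least one doubling.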

Tivantinib = compound: O=C1NC(=O)[C@@H](c2cn3c4c(cccc24)CCC3)[C@@H]1c1c[nH]c2ccccc12 [Tivantinib]
In short: as §1

Crenolanib + Navitoclax = compound: CC1(COc2ccc3c(c2)ncn3-c2ccc3cccc(N4CCC(N)CC4)c3n2)COC1 [Crenolanib] + CC1(C)CCC(c2ccc(Cl)cc2)=C(CN2CCN(c3ccc(C(=O)NS(=O)(=O)c4ccc(N[C@H](CCN5CCOCC5)CSc5ccccc5)c(S(=O)(=O)C(F)(F)F)c4)cc3)CC2)C1 [Navitoclax] (partner 0.5 µM)
In short: (§2)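 For relative viability, nuclei counts in treated wells were divided by those in vehicle wells. Lung cancer cell lines had been pin-tool dosed in 1536-well plates the day after seeding and cultured for 5 days, then fixed and stained in one step (final 0.05% Triton X-100, 1% formaldehyde, 1 ug/ml Hoechst) and imaged at 4×. Doses were one drug alone or a fixed anchor-drug dose plus five library-drug doses (not always all listed) in √10 steps, and values are duplicate-plate medians.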

Tivantinib + Phenformin = compound: O=C1NC(=O)[C@@H](c2cn3c4c(cccc24)CCC3)[C@@H]1c1c[nH]c2ccccc12 [Tivantinib] + N=C(N)NC(=N)NCCc1ccccc1 [Phenformin] (partner 250 µM)
In short: as §2

Cell Line | relative viability (Crenolanib; 0.01 µM) | relative viability (Crenolanib; 0.03162 µM) | relative viability (Crenolanib; 0.1 µM) | relative viability (Crenolanib; 0.3162 µM) | relative viability (Crenolanib; 1 µM) | relative viability (Tivantinib; 0.01 µM) | relative viability (Tivantinib; 0.03162 µM) | relative viability (Tivantinib; 0.1 µM) | relative viability (Tivantinib; 0.3162 µM) | relative viability (Crenolanib + Navitoclax; first compound 0.01 µM) | relative viability (Crenolanib + Navitoclax; first compound 0.03162 µM) | relative viability (Crenolanib + Navitoclax; first compound 0.1 µM) | relative viability (Crenolanib + Navitoclax; first compound 0.3162 µM) | relative viability (Crenolanib + Navitoclax; first compound 1 µM) | relative viability (Tivantinib + Phenformin; first compound 0.01 µM) | relative viability (Tivantinib + Phenformin; first compound 0.03162 µM) | relative viability (Tivantinib + Phenformin; first compound 0.1 µM) | relative viability (Tivantinib + Phenformin; first compound 0.3162 µM)
NCI-H1355 | 1.07 | 0.994 | 0.955 | 1.03 | 0.856 | 1.01 | 0.921 | 0.973 | 1.01 | 1.08 | 0.897 | 0.999 | 1.22 | 0.825 | 0.474 | 0.475 | 0.439 | 0.436
NCI-H2405 | 0.999 | 0.885 | 0.81 | 1 | 0.871 | 1.07 | 1.01 | 0.983 | 1.03 | 1.34 | 0.917 | 0.441 | 0.765 | 0.806 | 0.437 | 0.38 | 0.367 | 0.473
NCI-H2009 | 1.05 | 1.02 | 0.991 | 0.991 | 0.89 | 0.985 | 0.954 | 0.967 | 1.07 | 1.2 | 1.17 | 1.13 | 1.24 | 1.01 | 0.492 | 0.503 | 0.481 | 0.528
NCI-H441 | 1.08 | 1.11 | 0.987 | 1.13 | 0.928 | 0.902 | 1.22 | 0.9 | 0.939 | 0.487 |  | 0.815 | 0.639 | 0.683 | 0.872 | 0.84 | 0.777 | 0.828
PC-14 | 1.13 | 0.92 | 0.997 | 1.02 | 0.821 | 0.946 | 0.985 | 0.99 | 0.773 | 1.08 | 1.01 | 0.986 | 1.11 | 0.988 | 0.516 | 0.454 | 0.611 | 0.341
HCC-15 | 1.01 | 0.991 | 0.93 | 1.08 | 0.803 | 0.988 | 0.91 | 0.977 | 1.08 | 0.694 | 0.673 | 0.677 | 0.784 | 0.729 | 0.476 | 0.411 | 0.478 | 0.479
NCI-H2126 | 1.03 | 1.05 | 0.937 | 0.987 | 0.928 | 0.959 | 0.945 | 0.989 | 0.869 | 0.891 | 0.888 | 0.831 | 0.916 | 0.934 | 0.527 | 0.504 | 0.532 | 0.47
NCI-H1915 | 0.969 | 1 | 1.02 | 1.01 | 0.779 | 0.986 | 0.912 | 0.977 | 1.06 | 0.792 | 0.769 | 0.786 | 0.828 | 0.831 | 0.362 | 0.354 | 0.367 | 0.378
ChaGo-K-1 | 0.933 | 0.977 | 0.941 | 0.931 | 0.937 | 0.982 | 1.01 | 0.968 | 0.909 | 0.674 | 0.917 | 1 | 0.844 | 1 | 0.586 | 0.442 | 0.483 | 0.542
COR-L23 | 1.04 | 1.02 | 0.952 | 1.04 | 0.915 | 1.06 | 0.933 | 0.942 | 1.11 | 1.06 | 1.07 | 0.922 | 1.12 | 1.04 | 0.453 | 0.416 | 0.415 | 0.508
COR-L 105 | 1.03 | 0.953 | 0.852 | 0.963 | 0.915 | 0.912 | 0.734 | 0.892 | 0.537 | 0.766 | 0.778 | 0.713 | 0.975 | 0.884 | 0.523 | 0.366 | 0.401 | 0.369
LK-2 | 0.981 | 1.04 | 0.979 | 1.14 | 0.898 | 1.04 |  | 0.892 | 0.89 | 0.909 | 1.07 | 0.93 | 1.05 | 0.933 | 0.44 |  | 0.314 | 0.339
201T | 0.97 | 0.983 | 0.972 | 0.988 | 1.01 | 0.966 | 0.938 | 0.924 | 1.01 | 1.19 | 1.21 | 1.16 | 1.16 | 1.24 | 0.421 | 0.458 | 0.415 | 0.451
HCC-78 | 1.01 | 0.808 | 0.84 | 1.02 | 0.804 | 0.979 | 0.922 | 0.917 | 0.655 | 0.754 | 0.8 | 0.726 | 0.727 | 0.764 | 0.682 | 0.711 | 0.689 | 0.533
NCI-H647 | 0.983 | 0.915 | 0.973 | 1 | 0.929 | 1.06 | 0.992 | 0.881 | 0.946 | 1.13 | 1.22 | 0.967 | 1.11 | 0.98 | 0.583 | 0.476 | 0.437 | 0.619
HARA | 1.07 | 1 | 0.945 | 1 | 1.05 | 0.982 | 0.775 | 0.941 | 0.625 | 1.13 | 1.16 | 1.16 | 1.18 | 1.16 | 0.418 | 0.417 | 0.416 | 0.373
NCI-H2085 | 1 | 1.01 | 0.948 | 0.997 | 0.978 | 1.03 | 0.981 | 0.974 | 0.905 | 1.08 | 1.12 | 1.09 | 1.24 | 1.17 | 0.774 | 0.639 | 0.699 | 0.519
NCI-H2347 | 1.08 | 0.934 | 0.758 | 1.1 | 1.03 | 1.16 | 0.988 | 1.02 | 1.07 | 0.835 | 0.815 | 0.478 | 0.885 | 0.865 | 0.514 | 0.375 | 0.389 | 0.377
